Source: ChEMBL document CHEMBL3137667, “[Drug-induced liver injury; fourteenth updated edition of the bibliographic database of liver injuries and related drugs]” (Gastroenterol Clin Biol, 2004)

Legend:
[1] = Highest frequency of acute liver toxicity observed during clinical trials, expressed as a percentage. [column '% AIGUE' in source]; conditions: human
[2] = Times to onset, minimal and maximal, observed in the indexed observations. [column 'DELAI' in source]; conditions: human
[3] = human
[4] = Proposed mechanism(s) of liver damage. [column 'MEC' in source]; conditions: human
[5] = human, serum, 4383 h
[6] = human; remark: listed apart in the source
[7] = human, serum
[8] = human; remark: listed apart in the source
[9] = human, serum; remark: listed apart in the source
[10] = human; remark: listed apart in the source
[11] = human; remark: listed apart in the source
[12] = human; remark: listed apart in the source
[13] = human; remark: listed apart in the source
[14] = Highest frequency of moderate liver toxicity observed during clinical trials, expressed as a percentage. [column '% BIOL' in source]; conditions: human
[15] = human; remark: listed apart in the source
[16] = human; remark: listed apart in the source
[17] = Comments (NB not yet translated). [column 'COMMENTAIRES' in source]; conditions: human
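For Hepatotoxicity (association with vascular disease) in this document: count of indexed literature references reporting vascular liver injury in humans, e.g. peliosis hepatitis, hepatic veno-occlusive disease or Budd-Chiari syndrome.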
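For Hepatotoxicity (benign tumour) in this document: value is a count of indexed literature references citing a benign tumour confirmed by histopathology.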
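For Hepatotoxicity (choleostasis) in this document: human cholestatic liver injury, shown by histopathology or by peak ALT or AST elevation over alkaline phosphatase ratio below 2, value counts indexed literature reports.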
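For Hepatotoxicity (chronic liver disease) in this document: chronic liver injury confirmed by histopathology or persistently raised serum aminotransferase activity beyond 6 months, value given as the count of indexed literature references.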
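For Hepatotoxicity (cirrhosis) in this document: value is a count of indexed literature references reporting cirrhosis confirmed by histopathology.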
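For Hepatotoxicity (cytolytic) in this document: human cytolytic liver injury, shown by histopathology or by a ratio above 5 of peak ALT or AST elevation to alkaline phosphatase elevation, value counts indexed references.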
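For Hepatotoxicity (granulomatous hepatitis) in this document: value is a count of indexed literature references reporting granulomatous liver disease confirmed by histopathology.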
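For Hepatotoxicity (malignant tumour) in this document: malignant tumour confirmed by histopathology, value gives the count of indexed literature references reporting it.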
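For Hepatotoxicity (severe hepatitis) in this document: human clinical data: severe hepatitis, meaning potentially life-threatening liver failure or clinically observed cases, the value counts how many indexed literature references report it.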
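For Hepatotoxicity (steatosis) in this document: steatosis confirmed by histopathology, value is the count of indexed references.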

Compound	Hepatotoxicity (acute) [1] [%]	Hepatotoxicity (time to onset) [2]	Hepatotoxicity (cytolytic) [3]	Hepatotoxicity (mechanism) [4]	Hepatotoxicity (chronic liver disease) [5]	Hepatotoxicity (malignant tumour) [6]	Hepatotoxicity (acute) [7]	Hepatotoxicity (association with vascular disease) [8]	Hepatotoxicity (moderate) [9]	Hepatotoxicity (steatosis) [10]	Hepatotoxicity (granulomatous hepatitis) [11]	Hepatotoxicity (choleostasis) [12]	Hepatotoxicity (cirrhosis) [13]	Hepatotoxicity (moderate) [14] [%]	Hepatotoxicity (severe hepatitis) [15]	Hepatotoxicity (benign tumour) [16]	Hepatotoxicity (comment) [17]	Hepatotoxicity (acute) ([1]; Liver) [%]	Hepatotoxicity (moderate) ([14]; Liver) [%]	Hepatotoxicity (severe hepatitis) ([15]; Liver)
Cc1c(C)c2c(c(C)c1O)CCC(C)(COc1ccc(CC3SC(=O)NC3=O)cc1)O2 (centres undefined) [TROGLITAZONE]	5	3 days - 2.3 years	27	Mitochondrial toxicity	1	0	36	0	18	2	1	4	0	5.8	21	0	CHOLESTASE_PROLONGEE			
CC1=C(/C=C/C(C)=C/C=C/C(C)=C/C(=O)O)C(C)(C)CCC1 [TRETINOIN]	16.7	10 days - 38 days	3	Dose-dependant	0	0	10	0	26	0	0	4	0	85	2	0	CHOLANGITE			
COc1ccc2[nH]cc(CCNC(C)=O)c2c1 [MELATONIN]	0	3 weeks	1	Allergic	0	0	1	0	0	0	0	0	0	0	0	0	AC_ANTI-ML			
CCC(C)n1ncn(-c2ccc(N3CCN(c4ccc(OCC5COC(Cn6cncn6)(c6ccc(Cl)cc6Cl)O5)cc4)CC3)cc2)c1=O (centres undefined) [ITRACONAZOLE]	30	5 days - 7 months	10	Dose-dependant	0	0	18	0	55	1	0	10	0	91.7	1	1	CHOLANGITE DUCTOPENIE HNF			
CCc1cc2c(s1)N(C)C(=O)CN=C2c1ccccc1Cl [CLOTIAZEPAM]	0	7 months	2	Allergic	0	0	2	0	0	0	0	0	0	0	0	0	AC_ANTI-N			
CC(=O)Oc1cccc2c1C(=O)c1c(OC(C)=O)cc(C(=O)O)cc1C2=O [DIACEREIN]	0	10 days	1	Allergic	0	0	2	0	0	0	0	1	0	0	1	0	AC_ANTI-N			
CC1(C)S[C@@H]2[C@H](NC(=O)[C@H](N)c3ccc(O)cc3)C(=O)N2[C@H]1C(=O)O [AMOXICILLIN]		3 days - 8 weeks	2	Allergic	1	0	10	0	7	0	1	7	0			0	CHOLESTASE_PROLONGEE CHOLANGITE DUCTOPENIE RC/ERYTHROMYCINE	0	8	1
CC[C@H]1OC(=O)[C@H](C)[C@@H](O[C@H]2C[C@@](C)(OC)[C@@H](O)[C@H](C)O2)[C@H](C)[C@@H](O[C@@H]2O[C@H](C)C[C@H](N(C)C)[C@H]2O)[C@](C)(O)C[C@@H](C)CN(C)[C@H](C)[C@@H](O)[C@]1(C)O [AZITHROMYCIN]	0	3 days - 18 days	0	Allergic	0	0	5	0	53	0	0	4	0	40	0	0	CHOLANGITE			
CC(=O)Nc1ccc(OCC(O)CNC(C)C)cc1 (centres undefined) [PRACTOLOL]	0	16 months - 4 years	0	Allergic	0	0	0	0	0	0	0	0	1	0	0	0	AC_ANTI-N/-M #CBP			
GEMTUZUMAB OZOGAMICIN	38.3	2 days - 6 months	10	Dose-dependant	0	0	11	19	7	0	0	2	0	47.8	1	0	MVO			
CN(C)CCCN1c2ccccc2Sc2ccccc21 [PROMAZINE]	0	2 days - 2 months	0	Allergic	0	0	6	0	1	0	0	6	0	0	0	0	RC/CHLORPROMAZINE			
CC(S)C(=O)NCC(=O)O (centres undefined) [TIOPRONIN]	2.1	19 days - 2 years	1	Allergic	3	0	10	0	1	1	0	8	0	0	0	0	CHOLESTASE_PROLONGEE #CBP			
